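Abbreviation: GI50, concentration required for 50% inhibition of growth. TGI denotes the concentration required for complete inhibition of growth.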
Assays:
Experiment in all cases: DTP human tumour cell line panel, 384-well format
786-0 renal = test system: 786-0 renal
A498 renal = test system: A498 renal
BT-549 breast = test system: BT-549 breast
CAKI-1 renal = test system: CAKI-1 renal
CCRF-CEM leukemia = test system: CCRF-CEM leukemia
COLO 205 colon = test system: COLO 205 colon
DU-145 prostate = test system: DU-145 prostate
EKVX NSCLC = test system: EKVX NSCLC
HCC-2998 colon = test system: HCC-2998 colon
HCT-116 colon = test system: HCT-116 colon
HCT-15 colon = test system: HCT-15 colon
HOP-62 NSCLC = test system: HOP-62 NSCLC
HOP-92 NSCLC = test system: HOP-92 NSCLC
HT29 colon = test system: HT29 colon
IGROV1 ovarian = test system: IGROV1 ovarian
K-562 leukemia = test system: K-562 leukemia
KM12 colon = test system: KM12 colon
LOX IMVI melanoma = test system: LOX IMVI melanoma
M14 melanoma = test system: M14 melanoma
MCF7 breast = test system: MCF7 breast
MDA-MB-231 breast = test system: MDA-MB-231 breast
MDA-MB-435 melanoma = test system: MDA-MB-435 melanoma
MOLT-4 leukemia = test system: MOLT-4 leukemia
NCI-H226 lung = test system: NCI-H226 lung
NCI-H23 lung = test system: NCI-H23 lung
NCI-H460 NSCLC = test system: NCI-H460 NSCLC
NCI/ADR-RES ovarian = test system: NCI/ADR-RES ovarian
OVCAR-3 ovarian = test system: OVCAR-3 ovarian
OVCAR-4 ovarian = test system: OVCAR-4 ovarian
OVCAR-8 ovarian = test system: OVCAR-8 ovarian
PC-3 prostate = test system: PC-3 prostate
RPMI-8226 leukemia = test system: RPMI-8226 leukemia
RXF 393 renal = test system: RXF 393 renal
SF-268 CNS = test system: SF-268 CNS
SF-295 CNS = test system: SF-295 CNS
SF-539 CNS = test system: SF-539 CNS
SK-MEL-2 melanoma = test system: SK-MEL-2 melanoma
SK-MEL-28 melanoma = test system: SK-MEL-28 melanoma
SK-MEL-5 melanoma = test system: SK-MEL-5 melanoma
SK-OV-3 ovarian = test system: SK-OV-3 ovarian
SN12C renal = test system: SN12C renal
SNB-19 CNS = test system: SNB-19 CNS
SR leukemia = test system: SR leukemia
SW-620 colon = test system: SW-620 colon
TK-10 renal = test system: TK-10 renal
U251 glioblastoma = test system: U251 glioblastoma
UACC-62 melanoma = test system: UACC-62 melanoma

Structure (SMILES): Cn1c(Nc2ccc(C(F)(F)F)cc2)nc2cc(Oc3ccnc(-c4ncc(C(F)(F)F)[nH]4)c3)ccc21
- GI50 ([…]-0 renal): 0.615 µM
- TGI (786-0 renal): 6.25 µM
- TGI (A498 renal): 12.9 µM
- GI50 (BT-549 breast): 0.182 µM
- TGI (BT-549 breast): 11.3 µM
- GI50 (CAKI-1 renal): 0.0157 µM
- TGI (CAKI-1 renal): 12.4 µM
- GI50 (CCRF-CEM leukemia): 0.231 µM
- TGI (CCRF-CEM leukemia): 1.17 µM
- GI50 (COLO 205 colon): 0.122 µM
- TGI (COLO 205 colon): 1.42 µM
- GI50 (DU-145 prostate): 0.0352 µM
- TGI (DU-145 prostate): 13.6 µM
- GI50 (EKVX NSCLC): 0.983 µM
- TGI (EKVX NSCLC): 4.91 µM
- GI50 (HCC-2998 colon): 0.0883 µM
- TGI (HCC-2998 colon): 5.62 µM
- GI50 (HCT-116 colon): 0.0625 µM
- TGI (HCT-116 colon): 3.55 µM
- GI50 (HCT-15 colon): 0.0537 µM
- TGI (HCT-15 colon): 10.3 µM
- GI50 (HOP-62 NSCLC): 0.608 µM
- TGI (HOP-62 NSCLC): 11.4 µM
- GI50 (HOP-92 NSCLC): 0.584 µM
- TGI (HOP-92 NSCLC): 6 µM
- GI50 (HT29 colon): 0.396 µM
- TGI (HT29 colon): 13.7 µM
- GI50 (IGROV1 ovarian): 0.041 µM
- TGI (IGROV1 ovarian): 11.2 µM
- GI50 (K-562 leukemia): 0.63 µM
- TGI (K-562 leukemia): 2.13 µM
- GI50 (KM12 colon): 0.734 µM
- TGI (KM12 colon): 12.5 µM
- GI50 (LOX IMVI melanoma): 0.0547 µM
- TGI (LOX IMVI melanoma): 1.54 µM
- GI50 (M14 melanoma): 0.0184 µM
- TGI (M14 melanoma): 0.332 µM
- GI50 (MCF7 breast): 1.59 µM
- TGI (MCF7 breast): 6.67 µM
- GI50 (MDA-MB-231 breast): 0.0367 µM
- TGI (MDA-MB-231 breast): 1.8 µM
- GI50 (MDA-MB-435 melanoma): 0.0476 µM
- TGI (MDA-MB-435 melanoma): 5.88 µM
- GI50 (MOLT-4 leukemia): 0.0553 µM
- TGI (MOLT-4 leukemia): 0.197 µM
- GI50 (NCI-H226 lung): 1.5 µM
- TGI (NCI-H226 lung): 19.2 µM
- GI50 (NCI-H23 lung): 0.179 µM
- TGI (NCI-H23 lung): 2.33 µM
- GI50 (NCI-H460 NSCLC): 0.237 µM
- TGI (NCI-H460 NSCLC): 10.3 µM
- GI50 (NCI/ADR-RES ovarian): 0.567 µM
- TGI (NCI/ADR-RES ovarian): 2.84 µM
- GI50 (OVCAR-3 ovarian): 0.158 µM
- TGI (OVCAR-3 ovarian): 2.46 µM
- GI50 (OVCAR-4 ovarian): 0.454 µM
- TGI (OVCAR-4 ovarian): 11.7 µM
- GI50 (OVCAR-8 ovarian): 0.493 µM
- TGI (OVCAR-8 ovarian): 10.6 µM
- GI50 (PC-3 prostate): 0.833 µM
- TGI (PC-3 prostate): 12.3 µM
- GI50 (RPMI-8226 leukemia): 0.232 µM
- TGI (RPMI-8226 leukemia): 2.09 µM
- GI50 (RXF 393 renal): 0.0159 µM
- TGI (RXF 393 renal): 0.348 µM
- GI50 (SF-268 CNS): 0.387 µM
- TGI (SF-268 CNS): 13.3 µM
- GI50 (SF-295 CNS): 0.249 µM
- TGI (SF-295 CNS): 5.66 µM
- GI50 (SF-539 CNS): 0.346 µM
- TGI (SF-539 CNS): 7.74 µM
- GI50 (SK-MEL-2 melanoma): 0.0238 µM
- TGI (SK-MEL-2 melanoma): 0.101 µM
- GI50 (SK-MEL-28 melanoma): 0.046 µM
- TGI (SK-MEL-28 melanoma): 0.408 µM
- GI50 (SK-MEL-5 melanoma): 0.0704 µM
- TGI (SK-MEL-5 melanoma): 0.617 µM
- GI50 (SK-OV-3 ovarian): 0.0127 µM
- TGI (SK-OV-3 ovarian): 12.5 µM
- GI50 (SN12C renal): 0.0464 µM
- TGI (SN12C renal): 11.8 µM
- GI50 (SNB-19 CNS): 0.359 µM
- TGI (SNB-19 CNS): 19.8 µM
- GI50 (SR leukemia): 0.27 µM
- TGI (SR leukemia): 2.11 µM
- GI50 (SW-620 colon): 0.873 µM
- TGI (SW-620 colon): 12.5 µM
- GI50 (TK-10 renal): 0.0896 µM
- TGI (TK-10 renal): 11.8 µM
- GI50 (U251 glioblastoma): 0.0979 µM
- TGI (U251 glioblastoma): 12.7 µM
- GI50 (UACC-62 melanoma): 0.027 µM
- TGI (UACC-62 melanoma): 0.462 µM

Structure (SMILES): CN1CC[C@@H](c2c(O)cc(O)c3c(=O)cc(-c4ccc(C(F)(F)F)cc4Cl)oc23)[C@@H]1CO
- GI50 ([…]-0 renal): 13.6 µM
- TGI (786-0 renal): 26.7 µM
- GI50 (A498 renal): 11.8 µM
- TGI (A498 renal): 24.2 µM
- GI50 (BT-549 breast): 14.6 µM
- TGI (BT-549 breast): 27.8 µM
- GI50 (CAKI-1 renal): 4.61 µM
- TGI (CAKI-1 renal): 13.1 µM
- GI50 (CCRF-CEM leukemia): 13.8 µM
- TGI (CCRF-CEM leukemia): 26.8 µM
- GI50 (COLO 205 colon): 18.4 µM
- TGI (COLO 205 colon): 32.6 µM
- GI50 (DU-145 prostate): 15.5 µM
- TGI (DU-145 prostate): 29.3 µM
- GI50 (EKVX NSCLC): 13.8 µM
- TGI (EKVX NSCLC): 27.1 µM
- GI50 (HCC-2998 colon): 13.2 µM
- TGI (HCC-2998 colon): 26.2 µM
- GI50 (HCT-116 colon): 12.4 µM
- TGI (HCT-116 colon): 25.4 µM
- GI50 (HCT-15 colon): 16.1 µM
- TGI (HCT-15 colon): 30 µM
- GI50 (HOP-62 NSCLC): 14.4 µM
- TGI (HOP-62 NSCLC): 27.7 µM
- GI50 (HOP-92 NSCLC): 12.7 µM
- TGI (HOP-92 NSCLC): 25.3 µM
- GI50 (HT29 colon): 17.6 µM
- TGI (HT29 colon): 31.8 µM
- GI50 (IGROV1 ovarian): 12 µM
- TGI (IGROV1 ovarian): 25.7 µM
- GI50 (K-562 leukemia): 13.9 µM
- TGI (K-562 leukemia): 27.3 µM
- GI50 (KM12 colon): 13.1 µM
- TGI (KM12 colon): 26 µM
- GI50 (LOX IMVI melanoma): 14 µM
- TGI (LOX IMVI melanoma): 27.1 µM
- GI50 (M14 melanoma): 17 µM
- TGI (M14 melanoma): 30.8 µM
- GI50 (MCF7 breast): 14.7 µM
- TGI (MCF7 breast): 28.2 µM
- GI50 (MDA-MB-231 breast): 15.9 µM
- TGI (MDA-MB-231 breast): 29.9 µM
- GI50 (MDA-MB-435 melanoma): 20.5 µM
- TGI (MDA-MB-435 melanoma): 34.9 µM
- GI50 (MOLT-4 leukemia): 12.7 µM
- TGI (MOLT-4 leukemia): 25.4 µM
- GI50 (NCI-H226 lung): 12.1 µM
- TGI (NCI-H226 lung): 26.8 µM
- GI50 (NCI-H23 lung): 14.9 µM
- TGI (NCI-H23 lung): 28.2 µM
- GI50 (NCI-H460 NSCLC): 14.5 µM
- TGI (NCI-H460 NSCLC): 28 µM
- GI50 (NCI/ADR-RES ovarian): 17.7 µM
- TGI (NCI/ADR-RES ovarian): 35.9 µM
- GI50 (OVCAR-3 ovarian): 12.7 µM
- TGI (OVCAR-3 ovarian): 25.9 µM
- GI50 (OVCAR-4 ovarian): 15.4 µM
- TGI (OVCAR-4 ovarian): 29.6 µM
- GI50 (OVCAR-8 ovarian): 14.2 µM
- TGI (OVCAR-8 ovarian): 27.4 µM
- GI50 (PC-3 prostate): 14.6 µM
- TGI (PC-3 prostate): 28.4 µM
- GI50 (RPMI-8226 leukemia): 7.71 µM
- TGI (RPMI-8226 leukemia): 20.3 µM
- GI50 (RXF 393 renal): 12.3 µM
- TGI (RXF 393 renal): 24.8 µM
- GI50 (SF-268 CNS): 15.1 µM
- TGI (SF-268 CNS): 28.5 µM
- GI50 (SF-295 CNS): 16.7 µM
- TGI (SF-295 CNS): 30.8 µM
- GI50 (SF-539 CNS): 16.1 µM
- TGI (SF-539 CNS): 29.8 µM
- GI50 (SK-MEL-2 melanoma): 14.5 µM
- TGI (SK-MEL-2 melanoma): 27.7 µM
- GI50 (SK-MEL-28 melanoma): 13.5 µM
- TGI (SK-MEL-28 melanoma): 26.4 µM
- GI50 (SK-MEL-5 melanoma): 16.7 µM
- TGI (SK-MEL-5 melanoma): 30.4 µM
- GI50 (SK-OV-3 ovarian): 16.3 µM
- TGI (SK-OV-3 ovarian): 31.1 µM
- GI50 (SN12C renal): 13.7 µM
- TGI (SN12C renal): 26.7 µM
- GI50 (SNB-19 CNS): 18.7 µM
- TGI (SNB-19 CNS): 33.9 µM
- GI50 (SR leukemia): 1.88 µM
- TGI (SR leukemia): 5.32 µM
- GI50 (SW-620 colon): 17.5 µM
- TGI (SW-620 colon): 31.6 µM
- GI50 (TK-10 renal): 14.2 µM
- TGI (TK-10 renal): 32.3 µM
- GI50 (U251 glioblastoma): 15.5 µM
- TGI (U251 glioblastoma): 29 µM
- GI50 (UACC-62 melanoma): 9.36 µM
- TGI (UACC-62 melanoma): 21.7 µM
